Converted amounts (≈) assume the structure as drawn. Where two headings read alike, the source gives them in different places.
Tests used:
[1] = tested on: HepG2 subcutaneous tumor; test: Anti-tumor activity in vivo, HepG2 nude mouse model; parameters: species or system Balb/c nude mice; conditions: HepG2 nude mice, intraperitoneally every day for 21 days; for anti-tumor activity in vivo (tumor volume, FIG. 1): high and low dose; for tumor inhibition rate: equal mole of Icaritin (Icaritin 10 mg/kg)
Excerpt: According to the investigation results of solubility and cell activity, compounds 51 and 57 with high solubility and strong cell activity were selected to evaluate the anti-hepatoma activity in vivo on HepG2 nude mouse models.
Human hepatoma cells HepG2 were cultivated to logarithmic growth phase in DMEM culture medium containing 10% fetal calf serum and 1% antibiotics (penicillin and streptomycin), and digested by adding 0.25% pancreatin. After the resulting cells were cultivated in DMEM and the pancreatin was removed, they were centrifuged at 1000 rpm for 3 min. Then the cells were collected and washed with free medium until no bubbles produced as observed by naked eyes, and then ° entrifuged. After discarding the supernatant, the cells were resuspended with free medium adjust the cell density to 1×10^6/100 μL.
70 Balb/c nude mice raised in an SPF-grade animal house were taken. 100 μL, HepG2 cells were inoculated subcutaneously at the right lateral rib of each nude mouse. The growing status of nude mice was observed and the subcutaneous tumor volume was measured every day. One week after inoculation, obvious nodules were formed subcutaneously in nude mice. Administration was initiated when the tumor grew to 100 mm^3.
Tumor volume increased to 80-120 mm^3 at two weeks after inoculation, marked as Day 0. The nude mice were randomly divided into 6 groups with 6 mice in each group: a normal saline group (control), an Icaritin group (Icarian), a yyhs-i-b high dose group, a yyhs-1-b low dose group, a yyhs-2-a high dose group, and a yyhs-2-a low dose group. Administration was performed intraperitoneally every day for 21 days totally.
The administration doses were: Icarian at 10 mg/kg, compound 51 high dose at 25.30 mg/kg, low dose at 12.65 mg/kg, compound 57 high dose at 22.91 mg/kg, and low dose at 11.45 mg/kg.
From day 0, the body weights and tumor volumes of nude mice were measured once every three days, in which the maximum diameter (a) of tumor was measured first, and then the longest radial line length (b) perpendicular to the maximum diameter line was measured, in mm, thereby calculating the tumor volume according to the following formula: […]
At the end of the treatment cycle, blood was taken from orbital vein of the nude mice for later blood routine test. Then the nude mice were sacrificed using cervical vertebra dislocation. After taking photos, the tumors were stripped immediately and photographed for record. From day 0, the body weights of each group of nude mice were weighed and recorded every 3 days, and at the same time, the tumor volumes of these nude mice were recorded. The average body weight and tumor volume were calculated for each group, and the curve of body weight versus tumor volume of the nude mice was plotted according to the statistical data.
The hearts, livers, spleens, lungs, and kidneys were subsequently picked from the nude mice, soaked with 4% paraformaldehyde and then preserved at a low temperature of 4° C. for later investigation of the mechanism of the anti-tumor in vivo. The tumor volume growth curve was plotted with the time as the horizontal coordinate, and with the tumor volume as the vertical coordinate. The tumor volume growth curves and the appearance of tumors are seen in FIG. 1. The body weight changing curves of mice are plotted in FIG. 2, with the time as the horizontal coordinate, and the body weight of mice as the vertical coordinate.

[2] = tested on: HepG2 hepatoma cells; test: Anti-tumor activity in vitro, MTT method, HepG2; type: cell-based, human; conditions: for IC50: MTT; for IC50 compared with Icaritin, HepG2 72 h: HepG2, 72 h after administration; for IC50 compared with Icaritin, 48 and 72 h: HepG2 and SMMC7721, 48 and 72 h
Procedure: (§1) The effects of Icaritin and its derivatives on the activities of HepG2 and SMMC7721 hepatoma cells were investigated by a MTT method. […] After reaction for 48, 7 2 h, each well was added with 20 μL 5 mg/mL, of MTT solution, and incubated in a cell incubator for 3-4 h. Then the liquid in the well plates was sucked to discard. Each well was added with 150 μL of dimethyl sulfoxide (DMSO), and shaken on an enzyme-labeled instrument for 30 s at ambient temperature so that the Formazan crystals were dissolved sufficiently. The absorbance value A of each well at 570 nm was detected by the enzyme-labeled instrument, and the experiment was repeated for 3 times.

[3] = Determination of solubility (HPLC); type: physicochemical; conditions: for solubility: thermodynamic from solid
Procedure: About 1.325 mg of Icaritin and the synthesized derivative were weighed and dissolved in 1.5 mL methanol respectively, then diluted with methanol into solutions of 10, 20, 50, 100, 150, 200, 500 μg/mL, and filtered over an organic-system filter head of 0.45 μm into sample bottles, obtaining the samples for test. Four parts of Icaritin and the synthesized derivative were weighed respectively, 1.00 mg for each part, and placed into 1.5 mL EP tubes, and 1 mL of water, normal saline, PBS, and 0.1% Tween 80 were respectively added thereto. The obtained solutions were ultrasonicated for 1 h, placed in a water bath at 37° C. overnight, and centrifuged at 10000 r/min for 3 min to collect supernatants. The supernatants were taken into sample bottles and detected by HPLC. The experiments were conducted in parallel for three times. The detection of HPLC is conducted under conditions of a chromatographic column of waters Symmetry C18, a mobile phase of a solution of methanol and water with a ratio of 80:20, a flow rate of 1.0 mL/min, a column temperature of 30° C., a detection wavelength of 210 nm, a run time of 30 min, and a sample load of 20 μL.

[4] = tested on: SMMC7721 hepatoma cells; test: Anti-tumor activity in vitro, MTT method, SMMC7721; type: cell-based, human; conditions: for IC50: MTT; for IC50 compared with Icaritin, SMMC7721 72 h: SMMC7721, 72 h after administration
Procedure: as §1

[5] = HepG2, 48 h, read-out: IC50 HepG2 48 h
[6] = HepG2, 72 h, read-out: IC50 HepG2 72 h
[7] = SMMC7721, 48 h, read-out: IC50 SMMC7721 48 h
[8] = SMMC7721, 72 h, read-out: IC50 SMMC7721 72 h
[9] = Homo sapiens, HepG2, 48 h, read-out: IC50 HepG2 48 h
[10] = Homo sapiens, HepG2, 72 h, read-out: IC50 HepG2 72 h
[11] = 37 °C, aqueous with cosolvent or surfactant or cyclodextrin
[12] = Homo sapiens, SMMC-7721, SMMC7721, 48 h, read-out: IC50 SMMC7721 48 h
[13] = Homo sapiens, SMMC-7721, SMMC7721, 72 h, read-out: IC50 SMMC7721 72 h

Row | SMILES | tumor inhibition rate [1] [%] | IC50 [2, 5] [µM] | IC50 [2, 6] [µM] | IC50 compared with Icaritin, HepG2 72 h [2] | Solubility, 0.1% Tween 80 [3] [µg/mL] | Solubility, Normal Saline [3] [µg/mL] | Solubility, PBS [3] [µg/mL] | Solubility, Water [3] [µg/mL] | IC50 [4, 7] [µM] | IC50 [4, 8] [µM] | IC50 compared with Icaritin, SMMC7721 72 h [4] | IC50 [2, 9] [µM] | IC50 [2, 10] [µM] | IC50 [4, 12] [µM] | IC50 [4, 13] [µM] | other results
1 | COc1ccc(-c2oc3c(CC=C(C)C)c(O)cc(O)c3c(=O)c2OC(=O)CCC(=O)OCCOCCOCCOCc2cn(C3OC(CO)C(O)C(O)C3O)nn2)cc1 (stereo not shown) [Compound 57] | 90 | 10.3 ± 1.19 | 7.91 ± 0.98 | less than that of Icaritin | 6.508 ± 0.742 (≈ 7.71 µM) | 16.383 ± 0.941 (≈ 19.4 µM) | 16.391 ± 1.029 (≈ 19.4 µM) | 17.710 ± 1.012 (≈ 21 µM) | 10.3 ± 1.19 | 5.82 ± 1.04 | less than that of Icaritin |  |  |  |  | anti-tumor activity in vivo (tumor volume, FIG. 1) [1]: excellent anti-tumor activities in vivo and are dose-dependent; IC50 compared with Icaritin, 48 and 72 h [2]: less than those of Icaritin; solubility compared with that of the bulk drug (Icaritin) [3]: improved effectively
2 | COc1ccc(-c2oc3c(CC=C(C)C)c(O)cc(O)c3c(=O)c2OC(=O)CCC(=O)OCCOCCOCCOCCOCc2cn(CCO[C@H]3O[C@@H](CO)[C@H](O)[C@@H](O)[C@@H]3O)nn2)cc1 [Compound 51] | 95 |  |  | less than that of Icaritin |  |  |  |  |  |  | less than that of Icaritin | 14.9 ± 0.22 | 7.09 ± 0.38 | 9.3 ± 0.35 | 5.99 ± 0.49 | anti-tumor activity in vivo (tumor volume, FIG. 1) [1]: excellent anti-tumor activities in vivo and are dose-dependent; IC50 compared with Icaritin, 48 and 72 h [2]: less than those of Icaritin; solubility compared with that of the bulk drug (Icaritin) [3]: improved effectively; solubility ([3]; 37 °C, aqueous buffer): 48.5 ± 0.948 µg/mL (≈ 52 µM); solubility [3, 11]: 51.5 ± 1.23 µg/mL (≈ 55.3 µM); solubility ([3]; 37 °C, saline or isotonic): 47.9 ± 0.993 µg/mL (≈ 51.4 µM); solubility ([3]; 37 °C, water): 50.3 ± 1.31 µg/mL (≈ 54 µM)
3 | COc1ccc(-c2oc3c(CC=C(C)C)c(O)cc(O)c3c(=O)c2O)cc1 [Icaritin, reference compound] | 53 |  |  |  |  |  |  |  |  |  |  | 20.6 ± 2.82 | 16.1 ± 1.27 | 23.2 ± 1.02 | 15 ± 0.66 | solubility ([3]; aqueous buffer, PBS, 37° C. overnight, n = 3, read-out: Solubility, PBS): 8.1 ± 0.897 µg/mL (≈ 22 µM); solubility ([3]; aqueous with cosolvent or surfactant or cyclodextrin, 0.1% Tween 80, 37° C. overnight, n = 3, read-out: Solubility, 0.1% Tween 80): 8.11 ± 0.672 µg/mL (≈ 22 µM); solubility ([3]; saline or isotonic, normal saline, 37° C. overnight, n = 3, read-out: Solubility, Normal Saline): 8.1 ± 1.01 µg/mL (≈ 22 µM); solubility ([3]; water, 37° C. overnight, n = 3, read-out: Solubility, Water): 8.57 ± 0.832 µg/mL (≈ 23.3 µM)
4 | COc1ccc(-c2oc3c(CC=C(C)C)c(O)cc(O)c3c(=O)c2OC(=O)CCC(=O)OCCCCOCc2cn(C3OC(CO)C(O)C(O)C3O)nn2)cc1 (stereo not shown) [Compound 87] |  | > 100 | 7.03 ± 0.67 | less than that of Icaritin |  |  |  |  | > 100 | 12.7 ± 1.02 | less than that of Icaritin |  |  |  |  | Solubility, 0.1% Tween 80 ([3]; 0.1% Tween 80, 37° C. overnight, n = 3): 1.358 ± 0.235 µg/mL (≈ 1.73 µM); Solubility, PBS ([3]; PBS, 37° C. overnight, n = 3): Insoluble; Solubility, Normal Saline ([3]; normal saline, 37° C. overnight, n = 3): 1.386 ± 0.743 µg/mL (≈ 1.77 µM); Solubility, Water ([3]; water, 37° C. overnight, n = 3): 1.277 ± 0.836 µg/mL (≈ 1.63 µM)
5 | COc1ccc(-c2oc3c(CC=C(C)C)c(O)cc(O)c3c(=O)c2OC(=O)CCC(=O)OCCCOCc2cn(CCOCCOC3OC(CO)C(O)C(O)C3O)nn2)cc1 (stereo not shown) [Compound 97] |  | > 100 | > 100 |  | 6.123 ± 0.931 (≈ 7.14 µM) | 5.036 ± 1.031 (≈ 5.87 µM) | 5.031 ± 0.901 (≈ 5.86 µM) | 5.474 ± 0.394 (≈ 6.38 µM) | > 100 | 8.68 ± 0.52 | less than that of Icaritin |  |  |  |  | 
6 | COc1ccc(-c2oc3c(CC=C(C)C)c(O)cc(O)c3c(=O)c2OC(=O)CCC(=O)OCCOCc2cn(CCOC3OC(CO)C(O)C(O)C3O)nn2)cc1 (stereo not shown) [Compound 72] |  | > 100 | > 100 |  | 5.697 ± 1.312 (≈ 7.12 µM) | 5.673 ± 1.031 (≈ 7.09 µM) | 5.656 ± 1.131 (≈ 7.07 µM) | 5.852 ± 0.748 (≈ 7.32 µM) | > 100 | > 100 |  |  |  |  |  | 
7 | COc1ccc(-c2oc3c(CC=C(C)C)c(O)cc(O)c3c(=O)c2OC(=O)CCC(=O)OCCOCCOCCOCc2cn(CCO[C@H]3O[C@@H](CO)[C@H](O)[C@@H](O)[C@@H]3O)nn2)cc1 [Compound 58] |  |  |  |  |  |  |  |  |  |  | less than that of Icaritin | 19.7 ± 0.52 | 20 ± 2.12 | > 100 | 2.51 ± 0.72 | solubility ([3]; 37 °C, aqueous buffer): 3.82 ± 0.874 µg/mL (≈ 4.31 µM); solubility [3, 11]: 3.89 ± 0.941 µg/mL (≈ 4.38 µM); solubility ([3]; 37 °C, saline or isotonic): 3.68 ± 0.947 µg/mL (≈ 4.15 µM); solubility ([3]; 37 °C, water): 3.64 ± 0.374 µg/mL (≈ 4.1 µM)
